According to patent US20210309645A1, “pH DEPENDENT PHOTOACOUSTIC COMPOUNDS AND APPLICATIONS THEREOF” (Wake Forest University, priority 2018, published 2021):

Tests used:
[1] = UV-Vis absorbance spectra in variable pH PBS buffer solutions; format: physicochemical; settings: pH 7.4, 7.0, 6.8, 6.5
Procedure: Substantial differences were observed between pH 7.4 and pH 7.0 (B), pH 7.0 and 6.8 (C). A small additional peak was observed between pH 6.8 and 6.5 (D). This initial identification of the ability of compound (Ia) to modulate absorbance spectra was solely dependent upon variation in pH as changes in absorbance in various light conditions, various levels of 02, and various cell culture medium (with and without phenol red) (data not shown) were also tested.

[2] = Quantum yield and spectral properties in buffered solutions, by comparison with rhodamine; format: physicochemical; settings: for ΦF (quantum yield): vs rhodamine
Procedure: The quantum yield of compound (Ia) under acidic (pH 6.0), neutral (7.0), and basic (pH 8.0) buffered solutions were calculated by comparison with rhodamine (ΦR=0.95 in ethanol), where ΦF is the quantum yield.

[3] = Absorption spectra in the presence of ions and reactive cellular products at pH 7.4; format: physicochemical; settings: Na+, K+, Ca2+, Fe2+, Mg2+, Zn2+, Fe3+ chloride salts, H2O2, GSH, cysteine
Procedure: Since compound (Ia) was designed to spectrally alter based upon H^+ protonation, compound (Ia) was also evaluated in the presence of de-ionized water, phosphate buffer saline, and/or other ions which are present in living organisms (Na^+, K^+, Ca^2+, Fe^2+, Mg^2+, Zn^2+, Fe^3+ and Fe^2+ as chloride salts), and other highly reactive cellular products (H2O2, glutathione (GSH), cysteine) at pH 7.4. […] With the establishment that modulation of spectral absorption corresponded to H^+ without influence of other ions, compound (Ia) was further evaluated as a potential optoacoustic agent.

[4] = system: orthotopic pancreatic tumor; assay: MSOT imaging of compound accumulation in mice with orthotopic pancreatic tumor; format: in vivo; settings: SCID mice, iv tail vein, 100 nM in PBS pH 7.4, 100 μl; after 2 h
Procedure: Preliminary evaluation of compound (Ia) accumulation within mice was conducted. A matrigel plug containing surgicel mesh and fibroblast was injected subcutaneously to stimulate non-malignant fibrotic tissue two weeks prior to orthotopic tumor implantation in 3 SCID mice. Mice were anesthesized using 1.5% isoflurane and a gas mixture of 0.9 L medical air and 0.1 L 02 to detect tissue hypoxia. Because areas of tissue hypoxia will also have acidic extracellular pH, tissue hypoxia served as an additional acidic extracellular pH (pHe) control. One week post tumor implantation mice were imaged using MSOT to obtain a baseline prior to iv tail vein injection of compound (Ia) at (100 nM in PBS pH 7.4) in 100 μl total volume.

[5] = in ethanol; cited from earlier work
[6] = pH 6.0 (acidic) buffered solution
[7] = pH 7.0 (neutral) buffered solution
[8] = pH 8.0 (basic) buffered solution

Compound | pH dependence of absorbance spectra (UV-Vis) [1] | Absmax [2, 6] [nm] | Emmax [2, 6] [nm] | ΦF (quantum yield) [2, 6] | Absmax [2, 7] [nm] | Emmax [2, 7] [nm] | ΦF (quantum yield) [2, 7] | Absmax [2, 8] [nm] | Emmax [2, 8] [nm] | ΦF (quantum yield) [2, 8] | change of absorption spectra in the presence of other ions and reactive cellular products [3] | accumulation detected by MSOT [4] | ΦR (quantum yield of reference) [5]
C[N+]1=C(/C=C/C2=C3Oc4cc(O)ccc4C=C3CCC2)C(C)(C)c2c1ccc1c2ccc2cc(Cl)ccc21 [compound (Ia)] | absorbance spectra modulation corresponding with variable pH PBS buffer solutions | 652 | 694 | 0.18 | 704 | 745 | 0.22 | 765 | 810 | 0.23 | did not significantly alter | Pancreatic tumor specific accumulation | –
rhodamine | – | – | – | – | – | – | – | – | – | – | – | – | 0.95
